How the values were obtained:
[1] = Phase I clinical trial of AST-3424 in China: blood pharmacokinetics compared with US data; format: in vivo, human; conditions: Chinese and American patients, printed as 'almost lower than'
[2] = Toxicokinetics (D1+D8/21 Days) in rats; format: in vivo, Sprague-Dawley (SD) rats; conditions: AST-3424 3, 10, 30 mg/kg on D1, D8, D22, D29
[3] = Toxicokinetics (D1+D8/21 Days) in monkeys; format: in vivo, cynomolgus monkeys
[4] = test system: human lung cancer (H460-GFP) subcutaneous CDX model; assay: Human lung cancer CDX efficacy model (QW×2 regimen); format: in vivo, nude mice; conditions: 15 mg/kg, BIW×4, I.V.; P<0.01
Procedure: Images of tumor burden in mice were non-invasively collected twice a week by a Fluor Vivo Model 100 imaging system, and the mean value of tumor area in each group was calculated based on imaging analysis results. […] The data from this experiment are the data for the H460 model in Example 3-1 of the aforementioned Patent Application 2 (see Table 5 and Figure 5 of this application).

[5] = test system: HuPrime® lung cancer LU5161 subcutaneous xenograft model; conditions: day 29 after first administration, AST-3424 1 mg/kg QD×5, 16 days off
Description: (§1) For the experimental procedures and relevant evaluation indicators of the aforementioned solid tumor animal efficacy models, please refer to Examples 7, 8, and 9 in Patent Application 1, namely PCT/US2016/062114, with Publication No. WO2017/087428 (corresponding to Chinese Application CN201680044608.1, with Publication No. CN108290911B), Examples 3 and 4 in Patent Application 2, namely PCT/CN2021/078115, with Publication No. WO2022178821, and Research Literature 1. The aforementioned non-clinical animal efficacy models (PDX) mentioned in the present application are all similar to those in the aforementioned literatures, and the specific operation procedures thereof are not described herein again.
LU5161 is a HuPrime® xenograft model established from a lung tumor (small cell lung cancer) of a patient.
(§2) Efficacy was evaluated based on the relative tumor growth inhibition rate (TGI, %), and safety was evaluated based on animal body weight changes and mortality.

[6] = test system: HuPrime® pancreatic cancer PA2637 subcutaneous xenograft model; conditions: Day 36 after first administration, AST-3424 1 mg/kg QD×5, 16 days off
Description: as §1
PA2637 is a HuPrime® xenograft model established from a pancreatic cancer tumor of a patient.
as §2

[7] = test system: HuPrime® lung cancer LU5173 subcutaneous xenograft model; conditions: day 32 after first administration, AST-3424 1 mg/kg QD×5, 16 days off
Description: as §1
The LU5173 is a HuPrime® xenograft model established from a lung cancer (small cell lung carcinoma) tumor of a patient.
Efficacy was evaluated based on the relative tumor growth inhibition (TGI, %), and safety was evaluated based on animal body weight changes and mortality.

[8] = test system: HuPrime® pancreatic cancer PA1170 subcutaneous xenograft model; assay: Pancreatic cancer PA1170 subcutaneous xenograft efficacy model; format: in vivo, BALB/c nude mice; conditions: 50 mg/kg, QD×30
[9] = test system: HuPrime® pancreatic cancer PA9451 subcutaneous xenograft model; assay: Pancreatic cancer PA9451 subcutaneous xenograft efficacy model; format: in vivo, BALB/c nude mice; conditions: 50 mg/kg, QD×30

In the case of `O=P(O)(N1CC1)N1CC1` [AST-2660], the “concentrations after 8 hours” value [1] is reported as “lower than 1 ng/ml”, the “exposure on Day 29 compared to Day 1” value [2] is reported as “decreased” and the “exposure to AST-2660 as % of the AST-3424 exposure” value ([3]; Day 1) is reported as 27.2%. The “exposure to AST-2660 as % of the AST-3424 exposure” value ([3]; Day 29) was 11.0%.
`CC(=O)O[C@H]1C(=O)[C@@]2(C)[C@H]([C@H](OC(=O)c3ccccc3)[C@]3(O)C[C@H](OC(=O)[C@H](O)[C@@H](NC(=O)c4ccccc4)c4ccccc4)C(C)=C1C3(C)C)[C@]1(OC(C)=O)CO[C@@H]1C[C@@H]2O` [Taxol, reference compound] showed a TGI [4] of 64%.
In the case of `O=P1(NCCCl)OCCCN1CCCl` (stereo not drawn) [ifosfamide, reference compound], the “TGI (%)” value ([5]; QD×5 (P < 0.001), ifosfamide 60 mg/kg QD×5/week for 2 weeks (p > 0.05)) is reported as 27.39%, the mean tumor volume ([5]; QD×5, ifosfamide 60 mg/kg QD×5/week for 2 weeks, negative control 2238.97) is reported as 1636.39 mm^3 and the “TGI (%)” value ([6]; QD×5 (P < 0.001), ifosfamide 60 mg/kg QD×5/week for 2 weeks (no statistical difference)) is reported as 2.74%. The mean tumor volume ([6]; QD×5, ifosfamide 60 mg/kg QD×5/week for 2 weeks, vehicle 977.46) was 938.33 mm^3, the “TGI (%)” value ([7]; QD×5 (P < 0.001), ifosfamide 6.0 mg/kg QD×5/week for 2 weeks (p > 0.05)) was 44.45% and the mean tumor volume ([7]; QD×5, ifosfamide 6.0 mg/kg QD×5/week for 2 weeks, vehicle 2276.68) was 1229.15 mm^3.
In the case of `O=C(c1cc(Cc2n[nH]c(=O)c3ccccc23)ccc1F)N1CCN(C(=O)C2CC2)CC1` [olaparib, reference compound], the “TGI (%)” value ([8]; Day 30, P > 0.05) is reported as 57.66%, the mean tumor volume ([8]; Day 30 after first administration) is reported as 517.75 mm^3 and the “TGI (%)” value ([9]; Day 36, P < 0.001) is reported as 47.88%. For the same molecule, the mean tumor volume ([9]; Day 36 after first administration) was 344.84 mm^3.

From patent EP4775209A1 (Ascentawits Pharmaceuticals, Ltd., priority 2023, dated 2025)
